According to US20040142393A1, “Methods of use of compounds with preptin function” (priority 2002, published 2004):

What was measured:
NIH-3T3 fibroblast cells = test: Stimulation of proliferation of NIH-3T3 cells (3H-thymidine uptake); assay type: cell-based; conditions: 10, 50, 100 and 500 nM preptin; FIG. 1
Protocol: NIH-3T3 cells may be used for various purposes including research regarding mitogenicity investigations. See, e.g., Buergisser et al. (1990). BiochemBiophys Res Comm 169(3): 832-839; Burgisser et al. (1991). J Biol. Chem 266(2): 1029-33; Yang et al. (1996). Endocrinol 137(7): 2766-2773; Geddes et al. (2001). Prot Engin 14(1): 61-65. NIH-3T3 cells were seeded in 24 well plates at a density of 3×10^4 cells/well. Cells were grown at 37° C. for 24 hours in high glucose DMEM (supplemented with 30 mM sodium hydrogen carbonate, 2 mM L-glutamine, 10^5 IU/l penicillin, 0.01% streptomycin sulphate) and 10% fetal calf serum, after which time they were serum starved for 24 hours in high DMEM and 0.2% BSA. […] This alkaline cell lysate was then neutralized with 200 μl of 0.2M HCl before 300 μl aliquots were mixed with 2 ml of Starscint scintillation fluid, and counted on a scintillation counter.
One method of measuring cell proliferation is via the incorporation of labeled nucleotides (e.g., [3H]-thymidine) into- newly synthesized DNA during cell division. For example, one of the most familiar and widely used methods for quantifying cell proliferation is the measurement of tritiated thymidine ([3H]-thymidine) incorporation. […]

INS-1E β-cells = test: Stimulation of proliferation of INS-1E β-cells (3H-thymidine uptake); assay type: cell-based; conditions: general statement; test with 10 nM rat preptin in INS-1E cells, FIG. 2
Protocol: INS-1E cells were seeded in 24 well plates at a density of 2×10^5 cells/well. Cells were grown at 37° C. for 24 hours in modified RPMI-1640 (GIBCO R-1383 Lot108H83032; supplemented with 23.8 mM sodium hydrogen carbonate, 2 mM L-glutamine, 10 mM HEPES, 50 μM β-Mercaptoethanol, 1 mM Sodium Pyruvate, 10^5 IU/l penicillin, 0.01% streptomycin sulphate) and 10% fetal calf serum, after which time they were serum starved for 24 hours in modified RPMI-1640. The serum free medium was then replaced with 500 μl of RPMI-1640 containing the following:
0% fetal calf serum (negative control), 10% fetal calf serum (positive control), 10 nM of rat preptin (rPreptin 10 nM), 10 nM of human GLP-1 (hGLP-1 10 nM), 10 nM of human IGF-II (hIGF-II 10 nM), and cells were incubated for a further 18 hours before the addition of 5 μCi of ^3H-thymidine to each well. After a further 6 hours incubation, medium was aspirated and cells were washed twice with cold PBS, once with cold 5% TCA, and twice with cold 100% ethanol. Plates were then air-dried for 30 minutes before cells were solubilized with 400 μl of 0.5M NaOH. This alkaline c ell lysate was then neutralized with 400 μl of 0.5M HCl before 500 μl aliquots were mixed with 2 ml of Starscint scintillation fluid, and counted on a scintillation counter. […]

insulin secretion = conditions: Buchanan et al. (2001) Biochem. J. 360: 431-439; cited from earlier work

For “preptin: peptide of 34 amino acids, Formula (I); corresponds to Asp69-Leu102 of proinsulin-like growth factor II (DVSTPPTVLPDNFPRYPVGKFFQYDTWKQSTQRL; Preptin; UniProt P01344 93-126, looked up)”, the “effect on the proliferation of NIH-3T3 fibroblast cells (tritiated thymidine uptake)” value (NIH-3T3 fibroblast cells) is listed as “dose dependent effect”, the “proliferation of pancreatic islet β-cells” value (INS-1E β-cells) is listed as “stimulate proliferation” and the “effect on insulin secretion” value (insulin secretion) is listed as “enhance, but not initiate, insulin secretion”.
